Data on 28 compounds can be found in patent US8648066B2 (Exelixis, Inc., priority 2009, dated 2014).

The target of the test is mTOR/GbL/Raptor (mTORC1) (Homo sapiens, UniProt P42345). As to the kind of experiment: mTOR/GbL/Raptor (mTORC1) ELISA assay. To be noted: phosphorylation of 4E-BP1; 0.2 nM mTORC1, 10 μM ATP; read-out: IC50 in this assay (mTORC1 ELISA). It counts as biochemical. Put shortly:
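Human mTORC1 (0.2 nM) phosphorylated 50 nM His-tagged 4E-BP1 with 10 µM ATP in HEPES pH 7.2 containing 10 mM MnCl2, 120 min at ambient temperature. Substrate was captured on Ni-chelate plates; phospho-4E-BP1 was detected by primary antibody and HRP secondary with luminescence.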

A word on the IC50: it is the concentration that gives 50% inhibition. With `COCC1CCc2c(ncnc2N2CCOc3ccc(-c4cnc5nc(C)[nH]c5c4)cc3C2)C1` (stereo not shown) [Example 567, 7-(2-methyl-1H-imidazo[4,5-b]pyridin-6-yl)-4-{7-[(methyloxy)methyl]-5,6,7,8-tetrahydrquinazolin-4-yl}-2,3,4,5-tetrahydro-1,4-benzoxazepine], the 50% inhibitory concentration (IC50) was 0.05 to 0.25 µM.

`COc1ccc2c(N3CCOc4ccc(-c5ccc6nc(C)[nH]c6c5)cc4C3)ncnc2c1OC` [Example 34, 4-[7,8-bis(methyloxy)quinazolin-4-yl]-7-(2-methyl-1H-benzimidazol-6-yl)-2,3,4,5-tetrahydro-1,4-benzoxazepine]: the IC50 was in the range of 0.05 to 0.25 µM.

On to `Cc1nc2ccc(-c3ccc4c(c3)CN(c3ncnc(C)c3Cc3cc(F)cc(Cl)c3)CCO4)cc2[nH]1` [Example 83, 4-{5-[(3-chloro-5-fluorophenyl)methyl]-6-methylpyrimidin-4-yl}-7-(2-methyl-1H-benzimidazol-6-yl)-2,3,4,5-tetrahydro-1,4-benzoxazepine], for which the IC50 was at most 0.01 µM.

With `CC1(C)CCc2ncnc(N3CCOc4ccc(-c5ccc(Cl)c(NS(C)(=O)=O)c5)cc4C3)c2C1` [Example 621], the concentration for half-maximal inhibition (IC50) lay within 0.25 to 1 µM.

For `Cc1c(NC2CCN(C)CC2)ncnc1N1CCOc2ccc(-c3cnc4nc(C5CC5)[nH]c4c3)cc2C1` [Example 531, 6-[7-(2-cyclopropyl-1H-imidazo[4,5-b]pyridin-6-yl)-2,3-dihydro-1,4-benzoxazepin-4(5H)-yl]-5-methyl-N-(1-methylpiperidin-4-yl)pyrimidin-4-amine], the half-maximal inhibitory concentration (IC50) lay in the range of 0.25 to 1 µM.

Regarding `CN(C)S(=O)(=O)c1cncc(-c2ccc3c(c2)CN(c2ncnc4c2CC(C)(C)CC4)CCO3)c1` [Example 521, 5-[4-(6,6-dimethyl-5,6,7,8-tetrahydroquinazolin-4-yl)-2,3,4,5-tetrahydro-1,4-benzoxazepin-7-yl]-N,N-dimethylpyridine-3-sulfonamide], the IC50 lay within 0.25 to 1 µM. On to `COc1ccc2c(N3CCOc4ccc(-c5cnc(N)c([S+]([O-])C[C@@H](C)CO)c5)cc4C3)ncnc2c1` (stereo partly drawn) [Example 302, (2S)-3-[(2-amino-5-{4-[7-(methyloxy)quinazolin-4-yl]-2,3,4,5-tetrahydro-1,4-benzoxazolin-7-yl}pyridin-3-yl)sulfinyl]-2-methylpropan-1-ol], for which the IC50 lay in the range of 0.25 to 1 µM. As for `CNC(=O)c1ccc(-c2ccc3c(c2)CN(c2ncnc(C)c2Cc2ccc(F)cc2)CCO3)nc1` [Example 155, 6-(4-{5-[(4-fluorophenyl)methyl]-6-methylpyrimidin-4-yl}-2,3,4,5-tetrahydro-1,4-benzoxazepin-7-yl)-N-methylpyridine-3-carboxamide], the IC50 was 0.25 to 1 µM. Take `Cc1nc2ccc(-c3ccc4c(c3)CN(c3nccc5ccccc35)CCO4)cc2[nH]1` [Example 105, 4-isoquinolin-1-yl-7-(2-methyl-1H-benzimidazol-6-yl)-2,3,4,5-tetrahydro-1,4-benzoxazepine]: the half-inhibitory concentration (IC50) lay within 0.05 to 0.25 µM. `CC1(C)CCc2nc(CC#N)nc(N3CCOc4ccc(-c5cnc6sc(N)nc6c5)cc4C3)c2C1` [Example 684, {4-[7-(2-amino[1,3]thiazolo[5,4-b]pyridin-6-yl)-2,3-dihydro-1,4-benzoxazepin-4(5H)-yl]-6,6-dimethyl-5,6,7,8-tetrahydroquinazolin-2-yl}acetonitrile]: the half-maximal inhibitory concentration (IC50) was at most 0.01 µM. On to `CN1C[C@@H]2C[C@H]1CN2S(=O)(=O)c1cc(-c2ccc3c(c2)CN(c2ncnc4c2CC(C)(C)CC4)CCO3)cnc1N` [Example 518, 5-[4-(6,6-dimethyl-5,6,7,8-tetrahydroquinazolin-4-yl)-2,3,4,5-tetrahydro-1,4-benzoxazepin-7-yl]-3-{[(1S,4S)-5-methyl-2,5-diazabicyclo[2.2.1]hept-2-yl]sulfonyl}pyridin-2-amine], for which the IC50 was 0.05 to 0.25 µM.

Turning to `CC1(C)CCc2ncnc(N3CCOc4ccc(-c5cnc(N)c(S(=O)(=O)N6C[C@H]7C[C@@H]6CN7)c5)cc4C3)c2C1` [Example 435, 2-[(1R,4R)-2,5-diazabicyclo[2.2.1]hept-2-ylsulfonyl]-5-[4-(6,6-dimethyl-5,6,7,8-tetrahydroquinazolin-4-yl)-2,3,4,5-tetrahydro-1,4-benzoxazepin-7-yl]pyridin-2-amine], the IC50 was 0.01 to 0.05 µM. With `CNCc1nc2ncc(-c3ccc4c(c3)CN(c3ncnc5c3CC(C)(C)CC5)CCO4)cc2[nH]1` [Example 358, 1-{6-[4-(6,6-dimethyl-5,6,7,8-tetrahydroquinazolin-4-yl)-2,3,4,5-tetrahydro-1,4-benzoxazepin-7-yl]-1H-imidazo[4,5-b]pyridin-2-yl}-N-methylmethanamine], the IC50 lay in the range of 0.01 to 0.05 µM. In the case of `COC(=O)Nc1nc2ccc(-c3ccc4c(c3)CN(c3ncnc5[nH]ccc35)CCO4)cc2[nH]1` [Example 110, methyl {6-[4-(7H-pyrrolo[2,3-d]pyrimidin-4-yl)-2,3,4,5-tetrahydro-1,4-benzoxazepin-7-yl]-1H-benzimidazol-2-yl}carbamate], the IC50 is at least 2 µM. On to `COC(=O)Nc1nc2ccc(-c3ccc4c(c3)CN(c3nc(CN(C)C)nc5c3CC(C)(C)CC5)CCO4)cc2[nH]1` [Example 579, methyl [6-(4-{2-[(dimethylamino)methyl]-6,6-dimethyl-5,6,7,8-tetrahydroquinazolin-4-yl}-2,3,4,5-tetrahydro-1,4-benzoxazepin-7-yl)-1H-benzimidazol-2-yl]carbamate], for which the concentration for half-maximal inhibition (IC50) was 0.25 to 1 µM. As to `Nc1ccc(-c2ccc3c(c2)CN(c2ccnc4ccccc24)CCO3)cn1` [Example 226, 5-(4-quinolin-4-yl-2,3,4,5-tetrahydro-1,4-benzoxazepin-7-yl)pyridin-2-amine], the IC50 is 0.01 to 0.05 µM. Regarding `Cc1ncnc(N2CCOc3ccc(-c4cnc(N)cn4)cc3C2)c1Cc1ccc(F)cc1` [Example 151, 5-(4-{5-[(4-fluorophenyl)methyl]-6-methylpyrimidin-4-yl}-2,3,4,5-tetrahydro-1,4-benzoxazepin-7-yl)pyrazin-2-amine], the concentration for half-maximal inhibition (IC50) fell in the range of 0.05 to 0.25 µM. Then `CC1(C)CCc2ncnc(N3CCOc4ccc(-c5cnc6[nH]c(C(F)F)nc6c5)cc4C3)c2C1` [Example 229, 7-[2-(difluoromethyl)-3H-imidazo[4,5-b]pyridin-6-yl]-4-(6,6-dimethyl-5,6,7,8-tetrahydroquinazolin-4-yl)-2,3,4,5-tetrahydro-1,4-benzoxazepine], with at most 0.01 µM; and `Cc1nc2cc(-c3ccc4c(c3)CN(c3nc(CN(C)C)ncc3C(C)C)CCO4)ccc2[nH]1` [Example 612, N,N-dimethyl-1-{4-[7-(2-methyl-1H-benzimidazol-5-yl)-2,3-dihydro-1,4-benzoxazepin-4(5H)-yl]-5-(1-methylethyl)pyrimidin-2-yl}methanamine], with 0.05 to 0.25 µM.

For `Cc1nc2cc(-c3ccc4c(c3)CN(c3nc(N)nc(C)c3Cc3ccc(F)cc3)CCO4)cnc2[nH]1` [Example 690, 5-[(4-fluorophenyl)methyl]-4-methyl-6-[7-(2-methyl-3H-imidazo[4,5-b]pyridin-6-yl)-2,3-dihydro-1,4-benzoxazepin-4(5H)-yl]pyrimidin-2-amine], the half-maximal inhibitory concentration (IC50) is at most 0.01 µM.

Regarding `COc1ccc2ncnc(N3CCOc4ccc(-c5cnc6nc(N)[nH]c6c5)cc4C3)c2c1` [Example 182, 6-{4-[6-(methyloxy)quinazolin-4-yl]-2,3,4,5-tetrahydro-1,4-benzoxazepin-7-yl}-1H-imidazo[4,5-b]pyridin-2-amine], the half-inhibitory concentration (IC50) lay in the range of 0.01 to 0.05 µM. The same measure for `Cc1nc2ccc(-c3ccc4c(c3)CN(c3ccnc(C)c3Cc3ccc(F)cc3)CCO4)cc2[nH]1` [Example 102, 4-{3-[(4-fluorophenyl)methyl]-2-methylpyridin-4-yl}-7-(2-methyl-1H-benzimidazol-6-yl)-2,3,4,5-tetrahydro-1,4-benzoxazepine]: at most 0.01 µM. Then `Cc1nc2cc(-c3ccc4c(c3)CN(c3nc(CN5CCCC5)nc5c3CC(C)(C)CC5)CCO4)cnc2[nH]1` [Example 501, 4-[6,6-dimethyl-2-(pyrrolidin-1-ylmethyl)-5,6,7,8-tetrahydroquinazolin-4-yl]-7-(2-methyl-3H-imidazo[4,5-b]pyridin-6-yl)-2,3,4,5-tetrahydro-1,4-benzoxazepine], with at most 0.01 µM; and `CCCc1c(C)nc(CN(C)C)nc1N1CCOc2ccc(-c3cnc4sc(N)nc4c3)cc2C1` [Example 657, 6-(4-{2-[(dimethylamino)methyl]-6-methyl-5-propylpyrimidin-4-yl}-2,3,4,5-tetrahydro-1,4-benzoxazepin-7-yl)[1,3]thiazolo[5,4-b]pyridin-2-amine], with 0.05 to 0.25 µM; and `CC1(C)CCc2ncnc(N3CCOc4ccc(-c5cnc6[nH]ncc6c5)cc4C3)c2C1` [Example 263, 4-(6,6-dimethyl-5,6,7,8-tetrahydroquinazolin-4-yl)-7-(1H-pyrazolo[3,4-b]pyridin-5-yl)-2,3,4,5-tetrahydro-1,4-benzoxazepine], with 0.05 to 0.25 µM.

As to `CC(C)(O)CNS(=O)(=O)c1cc(-c2ccc3c(c2)CN(c2ncnc4c2CC(C)(C)CC4)CCO3)cnc1N` [Example 369, 2-amino-5-[4-(6,6-dimethyl-5,6,7,8-tetrahydroquinazolin-4-yl)-2,3,4,5-tetrahydro-1,4-benzoxazepin-7-yl]-N-(2-hydroxy-2-methylpropyl)pyridine-3-sulfonamide], the half-inhibitory concentration (IC50) was at most 0.01 µM.

On to `Cc1nc2ccc(-c3ccc4c(c3)CN(c3nc(CNC5CCC5)nc5c3CC(C)(C)CC5)CCO4)cc2[nH]1` [Example 587, N-({6,6-dimethyl-4-[7-(2-methyl-1H-benzimidazol-6-yl)-2,3-dihydro-1,4-benzoxazepin-4(5H)-yl]-5,6,7,8-tetrahydroquinazolin-2-yl}methyl)cyclobutanamine], for which the half-maximal inhibitory concentration (IC50) lay within 0.01 to 0.05 µM. For the compound `CCNc1nc2ccc(-c3ccc4c(c3)CN(c3ncnc5cc(OC)c(OC)cc35)CCO4)cc2[nH]1` [Example 259, 6-{4-[6,7-bis(methyloxy)quinazolin-4-yl]-2,3,4,5-tetrahydro-1,4-benzoxazepin-7-yl}-N-ethyl-1H-benzimidazol-2-amine], the 50% inhibitory concentration (IC50) is 0.05 to 0.25 µM.
